# Test results taken from PubChem BioAssay (NCI).
#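 Test compounds were applied to cells in 96-well plates for 48 hours at 5 doses. GI50 = concentration required for 50% inhibition of growth. TGI: concentration producing complete growth inhibition.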
# How the values were obtained:
# Assay in all cases: DTP human tumour cell line panel, 48 h
# SN12C renal = test system: SN12C renal
# SK-MEL-28 melanoma = test system: SK-MEL-28 melanoma
# SF-539 CNS = test system: SF-539 CNS
# HOP-62 NSCLC = test system: HOP-62 NSCLC
# NCI-H460 lung = test system: NCI-H460 lung
# EKVX NSCLC = test system: EKVX NSCLC
# CAKI-1 renal = test system: CAKI-1 renal
# HOP-92 NSCLC = test system: HOP-92 NSCLC
# DMS 114 small cell lung = test system: DMS 114 small cell lung
# HOP-18 NSCLC = test system: HOP-18 NSCLC
Compound,GI50 (SN12C renal),TGI (SN12C renal),GI50 (SK-MEL-28 melanoma),TGI (SK-MEL-28 melanoma),GI50 (SF-539 CNS),TGI (SF-539 CNS),GI50 (HOP-62 NSCLC),TGI (HOP-62 NSCLC),GI50 (NCI-H460 lung),TGI (NCI-H460 lung),GI50 (EKVX NSCLC),TGI (EKVX NSCLC),GI50 (CAKI-1 renal),TGI (CAKI-1 renal),GI50 (HOP-92 NSCLC),TGI (HOP-92 NSCLC),TGI (DMS 114 small cell lung),TGI (HOP-18 NSCLC),GI50 (HOP-18 NSCLC)
COc1cc(-c2c(C#N)c(N)nc(N3CCOCC3)c2C#N)cc(OC)c1OC,> 100 µM,> 100 µM,> 100 µM,> 100 µM,> 100 µM,> 100 µM,30.9 µM,> 100 µM,> 100 µM,> 100 µM,> 100 µM,> 100 µM,> 100 µM,> 100 µM,35.9 µM,> 100 µM,–,–,–
COc1ccc(-n2ccnc2-c2cc(OC)c(OC)c(OC)c2)cc1,6.24 µM,> 100 µM,2.99 µM,> 100 µM,3.27 µM,29.1 µM,3.59 µM,> 100 µM,2.37 µM,> 100 µM,34 µM,> 100 µM,1.28 µM,7.69 µM,20 µM,> 100 µM,–,–,–
COc1ccc(C(=O)C(c2ccc(OCc3ccccc3)cc2)c2ccc(OCc3ccccc3)cc2)cc1,–,> 100 µM,–,> 100 µM,–,> 100 µM,–,> 100 µM,–,> 100 µM,–,> 100 µM,–,> 100 µM,–,> 100 µM,> 100 µM,–,–
CCCCCCCCCCCCCCCCC(=O)O.CCCCCCCCCCCCCCCCCC(=O)O.CCCCCCCCCCCCCCCCCC(=O)O.CCCCCCCCCCCCCCCCCC(=O)O.CCCCCCCCCCCCCCCCCC(=O)O.CO[CH-]OC12COC1CC(O)C1(C)C(O)C(OC(C)O)C3=C(C)C(OC(=O)C(O)C([NH-])c4ccccc4)CC(O)(C(OC(=O)c4ccccc4)C21)C3(C)C.[Cu+].[Zn].[Zn].[Zn].[Zn].[Zn] (configuration not stated),0.0116 µM,> 25 µM,4.68 µM,23.7 µM,0.00598 µM,0.0506 µM,0.0131 µM,> 20.4 µM,0.00441 µM,3.66 µM,0.112 µM,9.22 µM,0.0513 µM,> 25 µM,0.858 µM,12.8 µM,–,–,–
C[C@@H](Oc1ccc(C(=O)NS(=O)(=O)C(C)(C)C)cc1C(F)(F)F)c1ccc(Oc2ccccc2)cn1,4.58 µM,18.6 µM,6.63 µM,21.8 µM,2.1 µM,5.62 µM,3.61 µM,17.7 µM,3.7 µM,13.3 µM,4.35 µM,20.3 µM,2.7 µM,17.7 µM,1.78 µM,11.7 µM,–,–,–
COc1cc(C(=O)N/N=C/c2ccc(N(C)C)cc2)cc(OC)c1OC,1.1 µM,> 100 µM,0.622 µM,> 100 µM,0.3 µM,5.25 µM,0.598 µM,> 100 µM,0.376 µM,31.7 µM,> 100 µM,> 100 µM,3.7 µM,> 100 µM,0.143 µM,2.28 µM,–,–,–
CN(Cc1cc(Cl)cc(Cl)c1O)Cc1c(O)ccc2ccccc12,–,43.7 µM,–,37.3 µM,–,38.5 µM,–,38.7 µM,–,35.1 µM,–,46.4 µM,–,33.8 µM,–,36.5 µM,–,–,–
Cc1ccc(NC(=O)/C(Cl)=C(/Cl)C(=O)O)cc1,–,32.5 µM,–,33 µM,–,–,–,> 100 µM,–,> 100 µM,–,31.2 µM,–,31.1 µM,–,32.6 µM,34.2 µM,34.7 µM,–
CC(=O)[CH-]C(=O)c1ccccc1.CC(=O)[CH-]C(=O)c1ccccc1.C[C@]12CCC(=O)C=C1CC[C@@H]1C2CC[C@@]2(C)C1CC[C@@H]2[O-].C[C@]12CCC(=O)C=C1CC[C@@H]1C2CC[C@@]2(C)C1CC[C@@H]2[O-].Cl.[Ti+4] (some centres not stated),20.8 µM,70.6 µM,32.9 µM,> 100 µM,–,–,20.6 µM,59.9 µM,14.8 µM,30.9 µM,–,–,13.8 µM,46.4 µM,–,–,–,91.4 µM,28.6 µM
COc1ccc(C2C=C(c3ccc4c(c3)OCO4)Oc3c2c(=O)oc2ccccc32)cc1OC (configuration not stated),–,> 100 µM,–,> 100 µM,–,1.81 µM,–,> 100 µM,–,> 100 µM,–,> 100 µM,–,> 100 µM,–,> 73.1 µM,–,–,–
N/N=c1\c2ccccc2c2cc3c(cc12)/c(=N/N)c1ccccc13,–,> 100 µM,–,> 100 µM,–,> 100 µM,–,> 100 µM,–,> 100 µM,–,> 100 µM,–,–,–,> 100 µM,> 100 µM,> 100 µM,–
O=S(=O)(/N=c1/scc(-c2ccccc2)n1-c1ccccc1)c1ccc(N2N=C3c4ccccc4CC3C2c2cccs2)cc1 (configuration not stated),94.3 µM,> 100 µM,> 100 µM,> 100 µM,> 100 µM,> 100 µM,73.2 µM,> 100 µM,95.1 µM,> 100 µM,35.5 µM,> 100 µM,73 µM,> 100 µM,> 100 µM,> 100 µM,–,–,–
CN(C)c1ccc(/C=C/C2=[N+](C)c3ccccc3C2(C)C)cc1,0.354 µM,13.4 µM,1.03 µM,18 µM,1.65 µM,14 µM,0.862 µM,13.8 µM,0.746 µM,10.7 µM,0.508 µM,20 µM,4.69 µM,> 100 µM,1.8 µM,9.03 µM,–,–,–
CC(=O)OC12COC1CC(O)C1(C)C(=O)C(O)C3=C(C)C(O)CC(O)(C(OC(=O)c4ccccc4)C21)C3(C)C (configuration not stated),–,> 100 µM,–,> 100 µM,–,5.51 µM,–,> 100 µM,–,> 100 µM,–,> 100 µM,–,> 100 µM,–,> 100 µM,–,–,–
CCN(CC)C1CCC(Nc2c(C(C)=O)cnc3ccc(-c4ccc(O)c(Cl)c4)cc23)CC1 (configuration not stated),0.45 µM,> 60 µM,1.83 µM,16.2 µM,0.551 µM,7.87 µM,2.14 µM,> 45.5 µM,0.311 µM,1.87 µM,1.82 µM,> 47.2 µM,0.376 µM,10.8 µM,0.227 µM,4.27 µM,–,–,–
Clc1ccc(-c2cc(-c3ccccc3)nc(NCCNc3ccnc4cc(Cl)ccc34)n2)cc1,1.74 µM,3.28 µM,1.7 µM,3.19 µM,1.72 µM,3.34 µM,1.68 µM,3.48 µM,1.95 µM,3.85 µM,1.6 µM,3.34 µM,1.47 µM,2.93 µM,1.32 µM,2.8 µM,–,–,–
